Source: patent publication US8940783B2, “Pheophorbide-α conjugates and their uses” (Gwangju Institute of Science and Technology, priority 2012, dated 2015)

How the values were obtained:
[1] = Fluorescence spectrometry; format: physicochemical; conditions: for fluorescence emission peak: 1 μM in MeOH; for blue shift of fluorescence emission spectra at pH 4 from those at pH 10 / intensity of fluorescence at pH 4 and pH 10 / intensity of fluorescence in 50% aqueous MeOH compared with 100% MeOH: 420 nm excitation, 6 at 1 μM; for blue shift of fluorescence emission spectra at pH 4 from those at pH 10 / intensity of fluorescence at pH 4 and pH 10: 7 at 0.3 μM; for intensity of fluorescence in 50% aqueous MeOH compared with 100% MeOH: 7 at 0.5 μM
Protocol: Fluorescence measurements were done using a FluoroMate FS-2. Steady-state fluorescence spectra were generally taken at 1 μM of compounds (1, 2, 6, 10, and 13) and 0.5 μM of compound 7 in MeOH. The samples were illuminated with 420 and 440 nm of light and fluorescence emission was scanned from 500 to 800 nm. Fluorescence spectra in both aqueous and organic solvent were generally taken at 1 μM of compound 6 and 0.5 μM of compound 7 in 100% MeOH and 50% aqueous MeOH by illumination with 420 nm of light. The pH profiles of fluorescence spectra were generally taken at 1 μM of compound 6 and 0.3 μM of compound 7 at pH 4 and 10 in MeOH by illumination with 420 nm of light.
To determine fluorescence quenching effect of the conjugates, the intensity of fluorescence of each compound with same concentration was analyzed using fluorescence spectrophotometer. The fluorescence emission spectrum of compounds at 1 μM (1, 2, 6, 10, and 13) and 0.5 μM (7) was obtained by excitation wavelengths (420 and 440 nm). […] Therefore, it could be speculated that the background fluorescence of the conjugates as they are administered invivo, may not be detected until internalization and cleavage of the conjugates by enzymatic attack in cancer cells are occurred so that the photoactivity of Pa and DOX may be recovered. In the case of Pa-PTX conjugate (7), fluorescence quenching effect was not observed as PTX is not a fluorophore (FIG. 3). To verify fluorescence quenching due to a close contact effect, spectral comparison of fluorescence emission of compounds 6 (1 μM) and 7 (0.5 μM) in aqueous and organic solvent was investigated by 420 nm excitation wavelength using fluorescence spectrophotometer. In contact quenching, two molecules interact by proton-coupled electron transfer through the formation of hydrogen bonds. In aqueous solutions, electrostatic, steric and hydrophobic forces control the formation of hydrogen bonds. Therefore, the quenching efficiency of conjugates could depend on the employed solvents.

[2] = system: MCF7 (breast adenocarcinoma) cells; test: SRB cell viability assay, MCF7; format: cell-based; conditions: 10 μM, three days
Protocol: (§1) The AT-84 is a squamous cell carcinoma, spontaneously arising from oral mucosa and syngenic to C3H/HeJ mice (which were kindly provided by Dr. E. J. Shillitoe, State University of New York, Upstate Medical University). MCF7, KB, HCT116, PC3, U-87MG, SK-OV-3, AT-84 cells were grown in RPMI 1640. The adherent cell line HepG2, HeLa, A549, YD-10B cells were cultured in DMEM medium. Both media were supplemented with 10% FBS (Invitrogen Co.), and antibiotic-antimycotic (Invitrogen Co.). All cell lines were incubated in a humidified atmosphere containing 5% CO2 at 37° C. The adherent cells were detached from the culture flasks by removal of the growth medium and addition of 1 mL trypsin/EDTA solution (0.05% w/v trypsin, 0.016% w/v EDTA). After 1-2 min incubation at 37° C., when the cells had detached from the surface, trypsinization was stopped by the addition of 4 mL of DMEM medium containing 10% FBS. […]
(§2) A cell viability assay was conducted to test the synthesized compounds on various cancer cells including MCF7 (breast adenocarcinoma), KB (mouth carcinoma), HeLa (cervical cancer), U-87MG (glioblastoma), A549 (lung adenocarcinoma), AT-84 (oral cancer), and YD-10B (oral cancer) cells. Briefly, the cells were incubated for three days with the synthesized compounds (6, 7, 10, and 13) and the viability was measured by the protocol of SRB assay. […]

[3] = system: HeLa (cervical cancer) cells; test: SRB cell viability assay, HeLa; format: cell-based; conditions: 10 μM, three days
Protocol: as §1, §2

[4] = system: U-87MG (glioblastoma) cells; test: SRB cell viability assay, U-87MG; format: cell-based; conditions: U-87MG cells, 10 μM, three days
Protocol: as §1, §2

[5] = system: AT-84 (oral cancer) cells; test: SRB cell viability assay, AT-84; format: cell-based, mice; conditions: AT-84 cells, 10 μM, three days
Protocol: as §1, §2

[6] = system: various cancer cells; test: SRB cell viability assay, various cancer cells (overall comparison); format: cell-based; conditions: same concentration (10 μM), three days; 6 compared with DOX; 10 and 13 compared with Pa-DOX direct conjugate
Protocol: The AT-84 is a squamous cell carcinoma, spontaneously arising from oral mucosa and syngenic to C3H/HeJ mice (which were kindly provided by Dr. E. J. Shillitoe, State University of New York, Upstate Medical University). MCF7, KB, HCT116, PC3, U-87MG, SK-OV-3, AT-84 cells were grown in RPMI 1640. The adherent cell line HepG2, HeLa, A549, YD-10B cells were cultured in DMEM medium. Both media were supplemented with 10% FBS (Invitrogen Co.), and antibiotic-antimycotic (Invitrogen Co.). All cell lines were incubated in a humidified atmosphere containing 5% CO2 at 37° C. The adherent cells were detached from the culture flasks by removal of the growth medium and addition of 1 mL trypsin/EDTA solution (0.05% w/v trypsin, 0.016% w/v EDTA). After 1-2 min incubation at 37° C., when the cells had detached from the surface, trypsinization was stopped by the addition of 4 mL of DMEM medium containing 10% FBS.
The cells were plated at a density of 50,000 cells/mL and well in 96-well plates and incubated with inhibitors for the time indicated. The SRB assay was carried out as described by Skehan et al. (Skehan, P. et al., J. Natl. Cancer Inst. 1990, 82, 1107). The drug incubation period of the cells was stopped by the addition of 50 μL of ice cold TCA solution into the growth medium.
A cell viability assay was conducted to test the synthesized compounds on various cancer cells including MCF7 (breast adenocarcinoma), KB (mouth carcinoma), HeLa (cervical cancer), U-87MG (glioblastoma), A549 (lung adenocarcinoma), AT-84 (oral cancer), and YD-10B (oral cancer) cells. Briefly, the cells were incubated for three days with the synthesized compounds (6, 7, 10, and 13) and the viability was measured by the protocol of SRB assay. […] The results may be interpreted with possibilities that the conjugates may suffer from entering the cells or being cleaved in the cells. Infact, the cellular uptake of the conjugates was occurred slower than Pa itself as shown in the study of Section 2.4. […]

[7] = system: KB (mouth carcinoma) cells; test: SRB cell viability assay, KB; format: cell-based; conditions: 10 μM, three days
Protocol: as §1, §2

[8] = system: YD-10B (oral cancer) cells; test: SRB cell viability assay, YD-10B; format: cell-based; conditions: YD-10B cells, 10 μM, three days
Protocol: as §1, §2

Row | Compound | fluorescence emission peak ([1]; excitation 420 and 440 nm) | inhibition of growth / cell viability [2] | inhibition of growth / cell viability [3] | inhibitory activity of the cell viability relative to comparator [6] | blue shift of fluorescence emission spectra at pH 4 from those at pH 10 [1] | intensity of fluorescence at pH 4 and pH 10 [1] | intensity of fluorescence in 50% aqueous MeOH compared with 100% MeOH [1] | other results
1 | C=Cc1c(C)c2cc3nc(c4c5[nH]c(cc6nc(cc1[nH]2)C(C)=C6CC)c(C)c5C(=O)C4C(=O)OC)[C@@H](CCC(=O)O)[C@@H]3C (stereo partly drawn) [Compound 1, Pheophorbide-α] | 665 nm |  |  |  |  |  |  | 
2 | COc1cccc2c1C(=O)c1c(O)c3c(c(O)c1C2=O)C[C@@](O)(C(=O)CO)C[C@@H]3O[C@H]1C[C@H](N)[C@H](O)[C@H](C)O1 [Compound 2, doxorubicin, reference compound] | 585 nm |  |  |  |  |  |  | 
3 | C=Cc1c(C)c2cc3nc(c4c5[nH]c(cc6nc(cc1[nH]2)C(C)=C6CC)c(C)c5C(=O)C4C(=O)OC)[C@@H](CCC(=O)NC1C[C@@H](O[C@H]2C[C@](O)(C(=O)CO)Cc4c(O)c5c(c(O)c42)C(=O)c2c(OC)cccc2C5=O)O[C@H](C)[C@@H]1O)[C@@H]3C (stereo partly drawn) [Compound 6, Pheophorbide-α-Doxorubicin] | 670 nm | moderately inhibited | moderately inhibited | lower activity than DOX itself | about 10 nm | increased at pH 4 but decreased at pH 10 | significantly reduced | inhibition of growth / cell viability [4]: moderately inhibited; inhibition of growth / cell viability [5]: moderately inhibited
4 | C=Cc1c(C)c2cc3nc(c4c5[nH]c(cc6nc(cc1[nH]2)C(C)=C6CC)c(C)c5C(=O)C4C(=O)OC)[C@@H](CCC(=O)O[C@H](C(=O)O[C@H]1C[C@@]2(O)[C@@H](OC(=O)c4ccccc4)[C@@H]4[C@]5(OC(C)=O)CO[C@@H]5C[C@H](O)[C@@]4(C)C(=O)[C@H](OC(C)=O)C(=C1C)C2(C)C)[C@H](NC(=O)c1ccccc1)c1ccccc1)[C@@H]3C (stereo partly drawn) [Compound 7, Pheophorbide-α-Paclitaxel] |  | potent inhibitory activity | potent inhibitory activity |  | about 10 nm | increased at pH 4 but decreased at pH 10 | significantly reduced | inhibition of growth / cell viability [7]: potent inhibitory activity; inhibition of growth / cell viability [8]: potent inhibitory activity; fluorescence quenching effect ([1]; 0.5 μM in MeOH, excitation 420 and 440 nm): not observed
5 | Pheophorbide-α-2-hydroxycinnamic acid-doxorubicin [Compound 10] | 670 nm |  |  | generally less inhibitory activity |  |  |  | 
6 | Pheophorbide-α-4-aminobenzyl alcohol-4-nitrophenyl formate-doxorubicin [Compound 13] | 670 nm |  |  | generally less inhibitory activity |  |  |  | 
